# Source: the supplement of paper PMC10307832
# Columns and labels:
# Assay in all cases: relative viability (nuclei count vs DMSO), 5 days (fraction); higher = more cells survive
# Irinotecan + Linsitinib = compound: CCc1c2c(nc3ccc(OC(=O)N4CCC(N5CCCCC5)CC4)cc13)-c1cc3c(c(=O)n1C2)COC(=O)[C@]3(O)CC [Irinotecan] + C[C@]1(O)C[C@@H](c2nc(-c3ccc4ccc(-c5ccccc5)nc4c3)c3c(N)nccn32)C1 [Linsitinib] (partner 1 µM)
# In short: (§1)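 For relative viability, nuclei counts in treated wells were divided by those in vehicle wells. Lung cancer cell lines had been pin-tool dosed in 1536-well plates the day after seeding and cultured for 5 days, then fixed and stained in one step (final 0.05% Triton X-100, 1% formaldehyde, 1 ug/ml Hoechst) and imaged at 4×. Doses were one drug alone or a fixed anchor-drug dose plus five library-drug doses (not always all listed) in √10 steps, and values are duplicate-plate medians.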
# RU-SKI 43 + OSI-027 = compound: CC[C@@H](C)CNCC(=O)N1CCC2=C([C@@H]1COC3=CC=CC(=C3)C)C=CS2 [RU-SKI 43] + COc1cccc2cc(-c3nc([C@H]4CC[C@H](C(=O)O)CC4)n4ncnc(N)c34)[nH]c12 [OSI-027] (partner 0.5 µM)
# In short: as §1
# RU-SKI 43 + Trametinib = compound: CC[C@@H](C)CNCC(=O)N1CCC2=C([C@@H]1COC3=CC=CC(=C3)C)C=CS2 [RU-SKI 43] + CC(=O)Nc1cccc(-n2c(=O)n(C3CC3)c(=O)c3c(Nc4ccc(I)cc4F)n(C)c(=O)c(C)c32)c1 [Trametinib] (partner 0.02 µM)
# In short: as §1
# RU-SKI 43 + Dasatinib = compound: CC[C@@H](C)CNCC(=O)N1CCC2=C([C@@H]1COC3=CC=CC(=C3)C)C=CS2 [RU-SKI 43] + Cc1nc(Nc2ncc(C(=O)Nc3c(C)cccc3Cl)s2)cc(N2CCN(CCO)CC2)n1 [Dasatinib] (partner 0.075 µM)
# In short: as §1
cell line,measurement,setting,value
UMC-11,relative viability,Irinotecan + Linsitinib; first compound 0.6325 µM,0.724
same,relative viability,Irinotecan + Linsitinib; first compound 2 µM,0.49
same,relative viability,Irinotecan + Linsitinib; first compound 6.325 µM,0.281
same,relative viability,Irinotecan + Linsitinib; first compound 20 µM,0.22
same,relative viability,RU-SKI 43 + OSI-027; first compound 0.1 µM,0.534
same,relative viability,RU-SKI 43 + OSI-027; first compound 0.3162 µM,0.631
same,relative viability,RU-SKI 43 + OSI-027; first compound 1 µM,0.492
same,relative viability,RU-SKI 43 + OSI-027; first compound 3.162 µM,0.5
same,relative viability,RU-SKI 43 + OSI-027; first compound 10 µM,0.463
same,relative viability,RU-SKI 43 + Trametinib; first compound 0.1 µM,0.691
same,relative viability,RU-SKI 43 + Trametinib; first compound 0.3162 µM,0.693
same,relative viability,RU-SKI 43 + Trametinib; first compound 1 µM,0.742
same,relative viability,RU-SKI 43 + Trametinib; first compound 3.162 µM,0.745
same,relative viability,RU-SKI 43 + Trametinib; first compound 10 µM,0.401
same,relative viability,RU-SKI 43 + Dasatinib; first compound 0.1 µM,0.526
same,relative viability,RU-SKI 43 + Dasatinib; first compound 0.3162 µM,0.685
same,relative viability,RU-SKI 43 + Dasatinib; first compound 1 µM,0.577
same,relative viability,RU-SKI 43 + Dasatinib; first compound 3.162 µM,0.516
same,relative viability,RU-SKI 43 + Dasatinib; first compound 10 µM,0.471
